15 compounds from patent publication US10104891B2 (priority 2014, dated 2018) can be followed below.

One data set has as its system Phytophthora infestans. Nature of the data set: whole plant or invertebrate. It counts as in vivo. As to conditions: Phytophthora infestans, in Solanum lycopersicum, 96 h, read-out: control value (Test 1).
Data set [1] has as its system Pseudoperonospora cubensis. Nature of the data set: Test 2: control effect against cucumber downy mildew. As to conditions: Pseudoperonospora cubensis, 120 h, control value vs untreated section. It counts as in vivo. The method, boiled down: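 Cucumber (Sagami hanjiro) at 2-leaf stage sprayed with 4 ppm compound from 10% wettable powder in Tween20 (1/5000); inoculated next day with P. cubensis zoospores, 1.0×10^4 units/ml, 16 hr moist chamber at 22° C. Lesion area rate scored 5 days post-inoculation; control value = (1 − treated/untreated onset area rate)×100.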

For another data set, the system named is Plasmopara viticola. The experiment in a line: Test 3: control effect against grape downy mildew. It counts as in vivo. As to conditions: Plasmopara viticola, 120 h, control value vs untreated section. The method, boiled down:
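Neomuscat grape seedlings were sprayed with compound at 4 ppm, diluted from a 10% wettable powder in Tween20 solution. One day later they were inoculated with Plasmopara viticola zoospores at 1.0×10^4 units/ml and held moist at 22° C. for 16 hr. Control value was derived from leaf lesion area at 5 days versus untreated leaves.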

The subject of the next data set is Pythium graminicola. The experiment in a line: Test 4: control effect against rice damping-off by the Pythium fungus (soil lavage). It counts as in vivo. As to conditions: 1,000 ppm, 2.5 ml test suspension drenched on contaminated soil, rice (koshihikari). The essentials: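 Compound at 1,000 ppm in 1/5000 Tween20 was drenched (2.5 ml) onto Koshihikari rice seeds, 3 pre-sprouted seeds per cell, sown in soil infested with Pythium graminicola (5 g/kg). Regime: 28 °C for 72 h, 5 °C for 2 days, then 25 °C for 14 days. Dead and stunted seedlings were scored into an onset rate, and control value = (1 − treated/untreated) × 100.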

As a reminder, the melting point is the temperature of the solid-liquid transition.

With `Cc1cc(C(F)(F)F)nn1CC(=O)N1CCC(c2nc(C3OCc4c(F)ccc(OS(C)(=O)=O)c4CO3)cs2)CC1` (stereo not drawn) [Compound 1-8, 4-[4-(6-fluoro-9-methylsulfonyloxy-1,5-dihydro-3H-2,4-benzodioxepin-3-yl)-2-thiazolyl]-1-[2-[5-methyl-3-(trifluoromethyl)-1H-pyrazole-1-yl]acetyl]piperidine], the melting point is 151 °C. For the same compound, the pest or weed control at 4 µg/mL in the data set with Phytophthora infestans was 100%. Further, in data set [1], the pest or weed control at 4 µg/mL came to 100%. Also, in the data set on Plasmopara viticola, the pest or weed control at 4 µg/mL was 100%.
With `Cc1ccc(C)c(CC(=O)N2CCC(c3nc(C4OCc5ccccc5C(C)O4)cs3)CC2)c1` (stereo not drawn) [Compound 2-13, 4-[4-(1-methyl-1,5-dihydro-3H-2,4-benzodioxepin-3-yl)-2-thiazolyl]-1-[2-(2,5-dimethylphenyl)acetyl]piperidine], the pest or weed control at 4 µg/mL with Phytophthora infestans is 50%; in data set [1] it was 100%; in the data set with Plasmopara viticola it was 100%. Besides, in the data set with Pythium graminicola, the pest or weed control at 1000 ppm is at least 90%.
With `Cc1ccc(C)c(CC(=O)N2CCC(c3nc(C4OCc5ccc([N+](=O)[O-])cc5CO4)cs3)CC2)c1` (stereo not drawn) [Compound 2-18, 4-[4-(7-nitro-1,5-dihydro-3H-2,4-benzodioxepin-3-yl)-2-thiazolyl]-1-[2-(2,5-dimethylphenyl)acetyl]piperidine], the pest or weed control at 4 µg/mL (in the data set on Phytophthora infestans; in data set [1]; with Plasmopara viticola) was 100% in each case. Also, the pest or weed control at 1000 ppm in the data set with Pythium graminicola was at least 90%.
For the compound `O=C(Cc1cc(Cl)ccc1Cl)N1CCC(c2nc(C3OCc4cccc(Br)c4CO3)cs2)CC1` (stereo not drawn) [Compound 2-19, 4-[4-(6-bromo-1,5-dihydro-3H-2,4-benzodioxepin-3-yl)-2-thiazolyl]-1-[2-(2,5-dichlorophenyl)acetyl]piperidine], the pest or weed control at 4 µg/mL (in the data set with Phytophthora infestans; in data set [1]; with Plasmopara viticola) was 100% throughout. The compound also registered a pest or weed control at 1000 ppm in the data set on Pythium graminicola of at least 90%.
For the compound `COc1ccc(Cl)c2c1COC(c1csc(C3CCN(C(=O)Cc4cc(C)ccc4C)CC3)n1)OC2` (stereo not drawn) [Compound 2-20, 4-[4-(6-chloro-9-methoxy-1,5-dihydro-3H-2,4-benzodioxepin-3-yl)-2-thiazolyl]-1-[2-(2,5-dimethylphenyl)acetyl]piperidine], the pest or weed control at 4 µg/mL (in the data set with Phytophthora infestans; in data set [1]; in the data set with Plasmopara viticola) was 100% in each case. The compound also returned a pest or weed control at 1000 ppm in the data set on Pythium graminicola of at least 90%.
Take `O=C(Cc1cc(Cl)ccc1Cl)N1CCC(c2nc(C3OCc4cccc(Cl)c4CO3)cs2)CC1` (stereo not drawn) [Compound 2-22, 4-[4-(6-chloro-1,5-dihydro-3H-2,4-benzodioxepin-3-yl)-2-thiazolyl]-1-[2-(2,5-dichlorophenyl)acetyl]piperidine]: the pest or weed control at 4 µg/mL (in the data set with Phytophthora infestans; in data set [1]; in the data set with Plasmopara viticola) was 100% each time. In the data set on Pythium graminicola, this compound registered a pest or weed control at 1000 ppm of at least 90%.
Regarding `COc1ccc(Cl)c2c1COC(c1csc(C3CCN(C(=O)Cc4cc(Cl)ccc4Cl)CC3)n1)OC2` (stereo not drawn) [Compound 2-23, 4-[4-(6-chloro-9-methoxy-1,5-dihydro-3H-2,4-benzodioxepin-3-yl)-2-thiazolyl]-1-[2-(2,5-dichlorophenyl)acetyl]piperidine], the pest or weed control at 4 µg/mL (in the data set on Phytophthora infestans; in data set [1]; with Plasmopara viticola) was 100% throughout. Also, in the data set with Pythium graminicola, the pest or weed control at 1000 ppm is at least 90%.
In the case of `O=C(Cc1cc(Cl)ccc1Cl)N1CCC(c2nc(C3OCc4c(F)c(F)c(F)c(F)c4CO3)cs2)CC1` [Compound 2-29, 4-[4-(6,7,8,9-tetrafluoro-1,5-dihydro-3H-2,4-benzodioxepin-3-yl)-2-thiazolyl]-1-[2-(2,5-dichlorophenyl)acetyl]piperidine], the pest or weed control at 4 µg/mL (in the data set on Phytophthora infestans; in data set [1]; in the data set with Plasmopara viticola) was 100% throughout. The same compound yielded a pest or weed control at 1000 ppm in the data set on Pythium graminicola of at least 90%.
`Cc1ccc(C)c(CC(=O)N2CCC(c3nc(C4OCc5cccc([N+](=O)[O-])c5CO4)cs3)CC2)c1` (stereo not drawn) [Compound 2-39, 4-[4-(6-nitro-1,5-dihydro-3H-2,4-benzodioxepin-3-yl)-2-thiazolyl]-1-[2-(2,5-dimethylphenyl)acetyl]piperidine]: the pest or weed control at 4 µg/mL (in the data set on Phytophthora infestans; in data set [1]; in the data set on Plasmopara viticola) was 100% throughout. In addition, in the data set with Pythium graminicola, the pest or weed control at 1000 ppm is at least 90%.
Consider `COc1ccc(C)c2c1COC(c1csc(C3CCN(C(=O)Cc4cc(C)ccc4C)CC3)n1)OC2` (stereo not drawn) [Compound 2-45, 4-[4-(6-methoxy-9-methyl-1,5-dihydro-3H-2,4-benzodioxepin-3-yl)-2-thiazolyl]-1-[2-(2,5-dimethylphenyl)acetyl]piperidine], for which the figures for the pest or weed control at 4 µg/mL (in the data set on Phytophthora infestans; in data set [1]; in the data set on Plasmopara viticola) were 90%, 100% and 100%, respectively. The same compound returned a pest or weed control at 1000 ppm in the data set with Pythium graminicola of at least 90%.
Turning to `O=C(Cc1cc(Cl)ccc1Cl)N1CCC(c2nc(C3OCc4cccc(OC(F)F)c4CO3)cs2)CC1` (stereo not drawn) [Compound 2-48, 4-[4-[6-(difluoromethoxy)-1,5-dihydro-3H-2,4-benzodioxepin-3-yl]-2-thiazolyl]-1-[2-(2,5-dichlorophenyl)acetyl]piperidine], the pest or weed control at 4 µg/mL (in the data set on Phytophthora infestans; in data set [1]; in the data set on Plasmopara viticola) was 100% in each case. For the same compound, the pest or weed control at 1000 ppm in the data set with Pythium graminicola was at least 90%.
As for `COc1ccc(F)c2c1COC(c1csc(C3CCN(C(=O)Cc4cc(C)ccc4C)CC3)n1)OC2` (stereo not drawn) [Compound 2-52, 4-[4-(6-fluoro-9-methoxy-1,5-dihydro-3H-2,4-benzodioxepin-3-yl)-2-thiazolyl]-1-[2-(2,5-dimethylphenyl)acetyl]piperidine], the pest or weed control at 4 µg/mL (in the data set on Phytophthora infestans; in data set [1]; in the data set on Plasmopara viticola) was 100% in each case. The pest or weed control at 1000 ppm with Pythium graminicola is at least 90%.
Turning to `Cc1ccc(C)c(N(C)C(=O)N2CCC(c3nc(C4OCc5c(F)ccc(OS(C)(=O)=O)c5CO4)cs3)CC2)c1` (stereo not drawn) [Compound 2-55, 4-[4-(6-fluoro-9-methylsulfonyloxy-1,5-dihydro-3H-2,4-benzodioxepin-3-yl)-2-thiazolyl]-1-[N-(2,5-dimethylphenyl)-N-methylcarbamoyl]piperidine], the pest or weed control at 4 µg/mL (with Phytophthora infestans; in data set [1]; in the data set on Plasmopara viticola) was 100% each time. In addition, the pest or weed control at 1000 ppm in the data set on Pythium graminicola was at least 90%.
As to `Cc1ccc(C)c(N(C)C(=O)N2CCC(c3nc(C4OCc5cccc(OS(C)(=O)=O)c5CO4)cs3)CC2)c1` (stereo not drawn) [Compound 2-56, 4-[4-(6-methylsulfonyloxy-1,5-dihydro-3H-2,4-benzodioxepin-3-yl)-2-thiazolyl]-1-[N-(2,5-dimethylphenyl)-N-methylcarbamoyl]piperidine], the values for the pest or weed control at 4 µg/mL (with Phytophthora infestans; in data set [1]; in the data set with Plasmopara viticola) were 90%, 30% and 70%, respectively. In addition, in the data set with Pythium graminicola, the pest or weed control at 1000 ppm was at least 90%.
With `Cc1ccc(C)c(CC(=S)N2CCC(c3nc(C4OCc5c(F)ccc(OS(C)(=O)=O)c5CO4)cs3)CC2)c1` (stereo not drawn) [Compound 2-57, 4-[4-(6-fluoro-9-methylsulfonyloxy-1,5-dihydro-3H-2,4-benzodioxepin-3-yl)-2-thiazolyl]-1-[2-(2,5-dimethylphenyl)thioacetyl]piperidine], the pest or weed control at 4 µg/mL (with Phytophthora infestans; in data set [1]; in the data set with Plasmopara viticola) was 100% in each case. The pest or weed control at 1000 ppm in the data set on Pythium graminicola was at least 90%.
